# Measured values taken from DBAASP.
# Several values for one entry are separate records, joined by “and”; a condition that tells them apart may be missing. Equal entries are not always repeated.
# How the values were obtained:
# Assay in all cases: ≥ marks a high value that may be exact or a test limit, other limits are often not marked, values filed in µg/mL are converted to µM
# [1] = tested on: Escherichia coli ATCC 25404
# Escherichia coli O157 = tested on: Escherichia coli O157
# Listeria monocytogenes = tested on: Listeria monocytogenes
# [2] = tested on: Micrococcus luteus ATCC 10420
# Salmonella typhimurium = tested on: Salmonella typhimurium
# [3] = tested on: Staphylococcus aureus ATCC 29213
# [4] = tested on: Staphylococcus aureus ATCC 43300
# [5] = tested on: Staphylococcus epidermidis ATCC 9709
# [6] = tested on: Lacticaseibacillus casei ATCC 4646
# [7] = tested on: Streptococcus gordonii Challis DL1
# [8] = tested on: Streptococcus mitis ATCC 903
# Streptococcus mutans = tested on: Streptococcus mutans
# [9] = tested on: Streptococcus sanguinis NY101
# [10] = tested on: Veillonella atypica PK1910
# Bacillus subtilis 1A751 = tested on: Bacillus subtilis 1A751
# [11] = tested on: Escherichia coli ATCC 25922
# [12] = tested on: Salmonella enterica subsp. enterica serovar Choleraesuis CMCC 50020
# [13] = tested on: Staphylococcus aureus ATCC 25923
# [14] = tested on: Candida albicans CIB 45437
# [15] = tested on: Escherichia coli CIB 84492
# [16] = tested on: Staphylococcus aureus CIB 85462
# Escherichia coli = tested on: Escherichia coli
# Helicobacter pylori = tested on: Helicobacter pylori
# [17] = tested on: Salmonella enterica subsp. enterica serovar Paratyphi A
# [18] = tested on: Staphylococcus aureus A170
# [19] = tested on: Staphylococcus epidermidis
# [20] = tested on: Bacillus subtilis ATCC 6633
# [21] = tested on: Candida albicans ATCC 20032
# [22] = tested on: Corynebacterium xerosis C875
# [23] = tested on: Enterococcus faecalis ATCC 29212
# Escherichia coli DC2 = tested on: Escherichia coli DC2
# Escherichia coli UB1005 = tested on: Escherichia coli UB1005
# [24] = tested on: Pseudomonas aeruginosa ATCC 27853
# [25] = tested on: Staphylococcus epidermidis C621
# [26] = tested on: Candida albicans ATCC 14053
# [27] = tested on: Candida tropicalis ATCC 13803
# Escherichia coli D31 = tested on: Escherichia coli D31
structure (smiles),measurement,setting,value
CC(C)C[C@H](NC(=O)[C@H](CC(C)C)NC(=O)[C@H](Cc1cnc[nH]1)NC(=O)[C@H](CO)NC(=O)[C@H](CC(C)C)NC(=O)[C@H](C)NC(=O)[C@H](Cc1cnc[nH]1)NC(=O)[C@H](Cc1ccccc1)NC(=O)[C@H](CC(C)C)NC(=O)[C@H](C)NC(=O)CNC(=O)[C@H](CC(C)C)NC(=O)[C@@H](N)Cc1ccccc1)C(=O)O [FLGALFHALSHLL],MIC,[1],≥ 64 µM
same,MIC,Escherichia coli O157,≥ 64 µM
same,MIC,Listeria monocytogenes,≥ 64 µM
same,MIC,[2],8 µM
same,MIC,Salmonella typhimurium,≥ 64 µM
same,MIC,[3],8 µM
same,MIC,[4],16 µM
same,MIC,[5],16 µM
CC[C@H](C)[C@H](N)C(=O)N[C@@H](CCCCN)C(=O)N[C@@H](CCC(N)=O)C(=O)N[C@@H](CC(C)C)C(=O)N[C@@H](CC(C)C)C(=O)N[C@@H](Cc1cnc[nH]1)C(=O)N[C@@H](Cc1ccccc1)C(=O)N[C@@H](Cc1ccccc1)C(=O)N[C@@H](CCC(N)=O)C(=O)N[C@@H](CCCN=C(N)N)C(=O)N[C@@H](Cc1ccccc1)C(=O)NCC(=O)NCC(=O)NCC(=O)N[C@@H](CCCN=C(N)N)C(=O)N[C@@H](Cc1c[nH]c2ccccc12)C(=O)N[C@@H](CCCN=C(N)N)C(=O)N[C@@H](Cc1c[nH]c2ccccc12)C(=O)N[C@@H](CCCN=C(N)N)C(=O)N[C@@H](Cc1c[nH]c2ccccc12)C(=O)N[C@@H](Cc1ccccc1)C(N)=O [IKQLLHFFQRFGGGRWRWRWF],MIC,[6],5.67 µM
same,MIC,[7],11.3 µM
same,MIC,[8],22.7 µM
same,MIC,Streptococcus mutans,2.83 µM
same,MIC,[9],5.67 µM
same,MIC,[10],2.83 µM
CC[C@H](C)[C@H](NC(=O)[C@H](CCCCN)NC(=O)[C@@H](NC(=O)[C@H](CC(C)C)NC(=O)[C@@H](NC(=O)[C@H](CCCCN)NC(=O)[C@H](CC(C)C)NC(=O)[C@H](Cc1ccccc1)NC(=O)[C@H](Cc1ccccc1)NC(=O)[C@H](CCCCN)NC(=O)[C@@H](N)CCCCN)C(C)C)[C@@H](C)O)C(=O)N[C@@H](CCCN=C(N)N)C(=O)N[C@H]1CSSC[C@@H](C(=O)N[C@@H](CCCN=C(N)N)C(=O)N[C@H](C(=O)O)[C@@H](C)O)NC(=O)CNC(=O)CNC(=O)[C@H](C)NC(=O)[C@H](C(C)C)NC(=O)[C@H](CCCCN)NC1=O [KKFFLKVLTKIRCKVAGGCRT],MIC,Bacillus subtilis 1A751,≥ 53.4 µM
same,MIC,[11],3.34 µM
same,MIC,[12],6.67 µM
same,MIC,[13],3.34 µM
CC[C@H](C)[C@H](NC(=O)CN)C(=O)N[C@@H](Cc1ccccc1)C(=O)NCC(=O)N[C@@H](CCCCN)C(=O)N[C@H](C(=O)N[C@@H](CC(C)C)C(=O)NCC(=O)N[C@H](C(=O)NCC(=O)N[C@@H](CCCCN)C(=O)N[C@@H](CCCCN)C(=O)N[C@H](C(=O)N[C@@H](CC(C)C)C(=O)N[C@H]1CSSC[C@@H](C(=O)O)NC(=O)[C@H](CCSC)NC(=O)CNC(=O)[C@H](CO)NC(=O)[C@H](CC(C)C)NC(=O)CNC1=O)C(C)C)C(C)C)[C@@H](C)CC [GIFGKILGVGKKVLCGLSGMC],MIC,[14],30.8 µM
same,MIC,[11],15.4 µM
same,MIC,[15],15.4 µM
same,MIC,[13],7.69 µM
same,MIC,[16],7.69 µM
C[C@@H](O)[C@H](NC(=O)[C@H](CS)NC(=O)[C@H](Cc1ccccc1)NC(=O)[C@H](CS)NC(=O)[C@H](CCCN=C(N)N)NC(=O)[C@H](CCCN=C(N)N)NC(=O)[C@H](CCCN=C(N)N)NC(=O)[C@H](Cc1ccccc1)NC(=O)CNC(=O)[C@H](CCCN=C(N)N)NC(=O)[C@H](CS)NC(=O)[C@H](CC(N)=O)NC(=O)CNC(=O)CNC(=O)[C@H](CO)NC(=O)[C@@H](N)Cc1ccccc1)C(=O)N[C@@H](CCCCN)C(N)=O [FSGGNCRGFRRRCFCTK],MIC,Escherichia coli,7.52 µM
same,MIC,Helicobacter pylori,7.52 µM and 5.01 µM and 6.01 µM
same,MIC,Listeria monocytogenes,20 µM
same,MIC,[17],7.52 µM
same,MIC,[18],20 µM
same,MIC,[19],20 µM
CC[C@H](C)[C@H](NC(=O)CN)C(=O)NCC(=O)NCC(=O)N[C@@H](CCCCN)C(=O)N[C@H](C(=O)N[C@@H](CC(C)C)C(=O)NCC(=O)NCC(=O)N[C@@H](CC(C)C)C(=O)N[C@@H](CCCCN)C(=O)N[C@H](C(=O)N[C@@H](C)C(=O)N[C@@H](CC(C)C)C(=O)N[C@@H](CCCCN)C(=O)NCC(=O)N[C@@H](C)C(=O)N[C@@H](C)C(=O)N[C@@H](CCCCN)C(=O)N[C@@H](CCC(=O)O)C(=O)N[C@@H](CC(C)C)C(=O)N[C@@H](C)C(=O)N[C@@H](CO)C(=O)N[C@H](C(=O)N[C@@H](Cc1ccc(O)cc1)C(=O)N[C@@H](CC(C)C)C(=O)N[C@@H](Cc1cnc[nH]1)C(N)=O)[C@@H](C)O)[C@@H](C)O)[C@@H](C)CC [GIGGKILGGLKTALKGAAKELASTYLH],MIC,[20],≥ 37.5 µM
same,MIC,[21],≥ 37.5 µM
same,MIC,[11],7.05 µM
same,MIC,[13],3.52 µM
C[C@H](NC(=O)[C@H](C)NC(=O)[C@H](CCCCN)NC(=O)[C@H](CCCCN)NC(=O)[C@@H](N)CCCCN)C(=O)N[C@@H](C)C(=O)N[C@@H](Cc1ccccc1)C(=O)N[C@@H](C)C(=O)N[C@@H](C)C(=O)N[C@@H](Cc1c[nH]c2ccccc12)C(=O)N[C@@H](C)C(=O)N[C@@H](C)C(=O)N[C@@H](Cc1ccccc1)C(=O)N[C@@H](C)C(=O)N[C@@H](CCCCN)C(=O)N[C@@H](CCCCN)C(=O)N[C@@H](CCCCN)C(N)=O [KKKAAAFAAWAAFAKKK],MIC,[20],16 µM
same,MIC,[22],4 µM
same,MIC,[23],> 32 µM
same,MIC,[11],> 32 µM
same,MIC,Escherichia coli DC2,16 µM
same,MIC,Escherichia coli UB1005,≥ 32 µM
same,MIC,[24],> 32 µM
same,MIC,[13],> 32 µM
same,MIC,[25],≥ 32 µM
CC[C@H](C)[C@@H]1NC(=O)CNC(=O)[C@H](CCCCN)NC(=O)[C@H](CC(N)=O)NC(=O)[C@H](CCCN=C(N)N)NC(=O)[C@H](CCCN=C(N)N)NC(=O)[C@@H](NC(=O)[C@H](CO)NC(=O)[C@H](CCC(N)=O)NC(=O)[C@H](CO)NC(=O)[C@H](CC(N)=O)NC(=O)[C@H](CCCN=C(N)N)NC(=O)[C@@H](NC(=O)CNC(=O)[C@@H](N)CCC(N)=O)C(C)C)CSSC[C@@H]2NC(=O)[C@H](CCCCN)NC(=O)[C@H](C(C)C)NC(=O)[C@H](CCC(N)=O)NC(=O)[C@H](C)NC(=O)CNC(=O)[C@H](CC(C)C)NC(=O)[C@@H]3CSSC[C@H](NC1=O)C(=O)N[C@@H](C(C)C)C(=O)N1CCC[C@H]1C(=O)N[C@@H]([C@@H](C)CC)C(=O)N[C@@H](CCCN=C(N)N)C(=O)N[C@@H](CSSC[C@@H](C(=O)N[C@@H](CCCN=C(N)N)C(=O)N[C@@H](CCCN=C(N)N)C(=O)N[C@@H](CCCCN)C(=O)O)NC2=O)C(=O)N1CCC[C@H]1C(=O)NCC(=O)N[C@@H](CO)C(=O)N[C@@H](CCSC)C(=O)N[C@@H](CCCN=C(N)N)C(=O)N[C@@H](CCC(N)=O)C(=O)N[C@@H]([C@@H](C)CC)C(=O)NCC(=O)N[C@@H]([C@@H](C)O)C(=O)N3 [QGVRNSQSCRRNKGICVPIRCPGSMRQIGTCLGAQVKCCRRK],MIC,[26],9.66 µM
same,MIC,[27],4.87 µM
same,MIC,Escherichia coli D31,4.87 µM
same,MIC,[24],19.1 µM
same,MIC,[3],19.1 µM
